Where two headings read alike, the source gives them in different places. Marks after values point to notes of the source that are not given here.
Assays:
rats with cirrhosis [1] = conditions: for ALT in blood plasma / AST in blood plasma / Bilirubin in blood plasma / Cholesterol in blood plasma: group with cirrhosis; for ALT in blood plasma: untreated 138 ± 14, control 55 ± 4; for AST in blood plasma: untreated 275 ± 36, control 141 ± 18; for Bilirubin in blood plasma: untreated 2.7 ± 0.8, control 1.1 ± 0.1; for Cholesterol in blood plasma: untreated 152 ± 30, control 97 ± 6
Experimental: (§1) Sprague-Dawley rats that were 6 weeks old and 140-160 g were used in the examples below.
When the rats were administered with 15 mg/kg of oltipraz, 3 times a week for 4 weeks, the ALT and AST activity in the blood plasma was reduced, and when administered with 30 mg/kg, approximately 70% of the AST value lowered, showing a statistical significance (Table 2).
The amount of bilirubin in blood plasma is an indicator of the liver's capacity.
Each value is represented by the average ± standard deviation. The number of animals used was 8 to 11. The significance of each group is determined by the paired Student's t-test. The significance is indicated by * p<0.05, compared to control and # p<0.05 compared to rats with cirrhosis.

C/EBP-β and C/EBP-α [2] = conditions: cirrhotic rats, 30 mg/kg, 3 times a week for 4 weeks
Experimental: With the importance of C/EBP in the regulation of liver regeneration in mind, the expression of C/EBP-β and C/EBP-α in oltipraz administered (30 mg/kg, 3 times a week for 4 weeks) cirrhotic rats were examined.

C/EBP-β and C/EBP-α [3] = conditions: primary cultured hepatocytes, 30 μM
cirrhotic rats [4] = conditions: 3 times a week for 4 weeks, untreated approximately 56% of normal
Source text: as §1
Cirrhosis is not only responsible for diminishing of a liver's function, but also for atrophy of the liver tissues. […] Since weight loss accompanies cirrhosis, in order to standardize the test results, the weight of the brain, which is normally not affected by cirrhosis, was used as the comparative weight to obtain the changes in the weights. The significance is indicated by ** p<0.01, compared to control and # p<0.05 compared to rats with cirrhosis.

PCNA [5] = conditions: cirrhotic rats, 30 mg/kg, 3 times a week for 4 weeks; compared to cirrhotic rat without oltipraz
Experimental: PCNA immunochemical analysis is done with a specific antibody for PCNA (Santa Cruz Biotech). Analysis was carried out by indirect Avidin-Biotin-Alkaline-Phosphatase technique, according to the protocol provided by the manufacturer (InnoGenex). […] By using blocking serum, nonspecific antibody bindings were prevented. Then, in a humidified chamber, the slices were incubated with antibodies for 30 minutes at room temperature. After the incubation, Phosphate Buffered Saline (PBS) with 0.1% Tween-20 was used to rinse the slides. The slices were subjected to biotinylated 2nd antibodies and reacted for 5 minutes at 37° C. followed by additional reaction for 5 minutes at 37° C. with streptavidin-conjugated alkaline phosphatase added. Then, 5-bromo-4-chloro-3-indolyl-phosphate (BCIP) and nitro-blue-tetrazolium (NBT) were used as the phosphatase substrate to be incubated with the slices on the slide until proper colors became visible. Afterwards, the slices were again stained with nuclear fast red.

cirrhotic rats [6] = conditions: index 0-3, untreated 1.7
Source text: as §1
Another representative clinical symptom of cirrhosis is the accumulation of ascites. […] The significance is indicated by ** p<0.01, compared to control and # p<0.05 compared to rats with cirrhosis.

PCNA [7] = conditions: cirrhotic rats, 30 mg/kg, 3 times a week for 4 weeks; versus control or untreated cirrhotic rats
Experimental: Nuclear fractions of the liver from the control rats, cirrhotic rats and oltipraz administered (30 mg/kg, 3 times a week for 4 weeks) cirrhotic rats were dissolved in a diluting solution containing sodium dodecyl sulfate (SDS) to form a sample and stored at −70° C. After SDS-polyacrylamide gel electrophoresis, immunoblot analysis was carried out. The sample was fractionated by using 12% gel electrophoresis and electrically transferred to nitrocellulose membrane. The nitrocellulose membrane was incubated with polyclonal mouse anti-PCNA antibody (1:1000) (Santa Cruz Biotech) and then incubated again with horseradish peroxidase-conjugated secondary antibody. Lastly, ECL chemiluminescence kit manufactured by Amersham company was used to develop the band.

rats with cirrhosis [8] = conditions: 3 times a week for 4 weeks; for Fibrosis Scores / Knodell Scores: group with cirrhosis; for Fibrosis Scores: scale 0-4, untreated 3.8 ± 0.2; for Knodell Scores: untreated 14.0 ± 0.8
Source text: as §1
(§2) By continually administering rats with dimethylnitrosamine (DMN) 3 times a week for 4 weeks, test models of cirrhotic livers were achieved. At such time, the rats showing only indications of liver fibrosis were placed in a separate group from rats showing indications of cirrhosis, and the survival rates of rats with cirrhosis and rats with liver fibrosis were studied during the next 4 weeks.
The histopathological effect of oltipraz on cirrhosis was studied.
(§3) The curative effect of oltipraz on liver cirrhosis was histopathologically determined through fibrosis scores taken after Masson's trichrome staining and through Knodell scores which show the portal inflammation and the extent of fibrosis of the liver (FIG. 2, Table 1).
(§4) Each value is represented by the average ± standard deviation. The number of animals used was 5 to 10. The significance of each group is determined by the paired Student's t-test. The significance is indicated by * p<0.05, ** p<0.01 compared to rats with cirrhosis or liver fibrosis. […] Degree of fibrosis 0=Normal, 1=Presence of weak fibrous tissue, 2=Presence of moderate fibrous tissue, 3=Presence of obvious fibrous tissue, 4=Evidence of severe fibrosis. Sum of values from periportal bridging (Greatest=10), intralobular cell loss (Greatest=4), portal inflammation (Greatest=4), and fibrosis (Greatest=4) yields the Knodell score.

rats with liver fibrosis [9] = conditions: group with fibrosis; for Fibrosis Scores: scale 0-4, untreated 2.2 ± 0.5; for Knodell Scores: untreated 6.0 ± 1.2
Source text: as §1, §2, §3, §4

cirrhotic rats [10] = conditions: 30 mg/kg, 3 times a week for 4 weeks
Source text: as §1
The left side of FIG. 4b is a photograph of liver tissue, obtained after administration of oltipraz to cirrhotic rats, taken following Masson's trichrome staining.

cirrhotic rats [11] = conditions: 30 mg/kg, 3 times a week for 4 weeks; remark: listed apart in the source
Source text: as §1
Ascites are formed when the synthesis of the blood plasma protein (especially albumin) is reduced in the liver tissues, bringing a disturbance in maintaining the equilibrium of the osmotic pressure in the blood. […] The significance is indicated by ** p<0.01, compared to control and # p<0.05 compared to rats with cirrhosis.

C/EBP-β = conditions: rat hepatocytes, 30 μM for 6 hours
Experimental: Afterwards, to study whether oltipraz promotes translocation of C/EBP-β to the nucleus, rat hepatocytes were incubated with oltipraz at the concentration of 30 μM for 6 hours.

rats with cirrhosis [12] = conditions: cirrhotic rats, 30 mg/kg, 3 times a week for 4 weeks; without oltipraz 48% after 4 weeks
Source text: as §1, §2

rats with liver fibrosis [13] = conditions: 30 mg/kg 3 times a week
Source text: as §1, §2

C/EBP = conditions: hepatocytes isolated from cirrhotic rats incubated with oltipraz
Thy1.1 and Flt-3 = conditions: cirrhotic rats, 30 mg/kg, 3 times a week for 4 weeks; compared to untreated cirrhotic rats
Source text: The cells, which regenerate to liver tissues, are known to originate from stem cells.

c-Met = conditions: cirrhotic rats, 30 mg/kg, 3 times a week for 4 weeks; versus un-administered rats
Source text: c-Met is a Hepatocyte Growth Factor (HGF) receptor, applicable in proliferation and differentiation of the liver cells. […] When c-Met is not appropriately present, even with the presence of HGF, liver tissues will not form.

[14] = 15 mg/kg, 3 times a week for 4 weeks, 15 mg/kg
[15] = 15 mg/kg, 3 times a week for 4 weeks, listed as oltipraz, 15 mg/kg

## Cc1c(-c2cnccn2)ssc1=S [Oltipraz, 5-(2-pyrazinyl)-4-methyl-1,2-dithiol-3-thione]
Rats with cirrhosis [1]; cirrhotic rats treated with oltipraz (dose not given)
  total cholesterol level in blood plasma: did not show noticeable change
Rats with cirrhosis [1]; cirrhotic rats, 30 mg/kg
  AST value lowered: approximately 70%
Rats with cirrhosis [1]; cirrhotic rats, oltipraz administration (dose not given)
  amount of bilirubin in blood plasma: tended to be reduced
Rats with cirrhosis [1]; [14]
  ALT in blood plasma: 124 ± 47
  AST in blood plasma: 206 ± 24
Rats with cirrhosis [1]; [15]
  ALT in blood plasma: reduced
  AST in blood plasma: reduced
Rats with cirrhosis [1]; 15 mg/kg
  Bilirubin in blood plasma: 1.8 ± 0.4
  Cholesterol in blood plasma: 116 ± 9
Rats with cirrhosis [1]; 30 mg/kg
  Bilirubin in blood plasma: 1.4 ± 0.2
  ALT in blood plasma: 110 ± 39
  Cholesterol in blood plasma: 104 ± 7
  AST in blood plasma: 185 ± 22^#
C/EBP-β and C/EBP-α [2]
  appearance of liver-enriched inhibitory protein (LIP): almost completely disappeared
  expression of C/EBP-α: noticeably recovered
  expression of C/EBP-β: increased
C/EBP-β and C/EBP-α [3]
  amount of C/EBP-α in the nucleus of the liver cells: gradually increased
  amount of C/EBP-β in the nucleus of the liver cells: gradually increased
Cirrhotic rats [4]; 15 mg/kg
  liver weights: recovered almost to the normal weights
Cirrhotic rats [4]; 30 mg/kg
  liver weights: recovered almost to the normal weights
PCNA [5]
  occurrence of PCNA (cells with PCNA): approximately twice more frequent
Cirrhotic rats [6]; 15 mg/kg
  ascites formation index: 0.9
Cirrhotic rats [6]; 30 mg/kg
  ascites formation index: 0.4
PCNA [7]
  expression of PCNA (36 kDa band intensity): significant increase in the expression of PCNA
Rats with cirrhosis [8]; cirrhotic rats, 15 or 30 mg/kg
  accumulation of fibers in liver tissue: reduced in a dose-dependent manner
Rats with cirrhosis [8]; 15 mg/kg
  Fibrosis Scores: 2.9 ± 0.4
  Knodell Scores: 8.7 ± 1.1**
Rats with cirrhosis [8]; 30 mg/kg
  Fibrosis Scores: 2.8 ± 1.1*
  Knodell Scores: 6.8 ± 2.5**
Rats with liver fibrosis [9]; 15 mg/kg
  Fibrosis Scores: 2.8 ± 0.4
  Knodell Scores: 7.0 ± 1.2
Rats with liver fibrosis [9]; 30 mg/kg
  Fibrosis Scores: 1.0 ± 0.0**
  Knodell Scores: 2.6 ± 0.4*
Cirrhotic rats [10]
  division of the liver cells: clearly shows the dividing cells
Cirrhotic rats [11]
  amount of albumin in the blood plasma: normal albumin content was recovered
C/EBP-β
  translocation of C/EBP-β to the nucleus: clearly promoted translocation
Rats with cirrhosis [12]
  survival rate: 83%
Rats with liver fibrosis [13]
  death of rats: no death
C/EBP
  amount of C/EBP in the nucleus: no significant change was observed
Thy1.1 and Flt-3
  number of cells containing Thy1.1 and Flt-3: considerable decline
c-Met
  expression of c-Met: noticeably greater

From patent US20030171382A1, “Pharmaceutical composition for regeneration of cirrhotic liver” (priority 2002, published 2003)
